Results from US5091524A, “Glycosidase inhibitor salbostatin, process for its preparation, and its use” (Hoechst Aktiengesellschaft, priority 1988, dated 1992).

Target: T1, trehalase (Sigma No. T 8778) (Sus scrofa, UniProt I3LIR5)
T1 construct: purchased Sigma T 8778
T1 sequence (I3LIR5 24-583): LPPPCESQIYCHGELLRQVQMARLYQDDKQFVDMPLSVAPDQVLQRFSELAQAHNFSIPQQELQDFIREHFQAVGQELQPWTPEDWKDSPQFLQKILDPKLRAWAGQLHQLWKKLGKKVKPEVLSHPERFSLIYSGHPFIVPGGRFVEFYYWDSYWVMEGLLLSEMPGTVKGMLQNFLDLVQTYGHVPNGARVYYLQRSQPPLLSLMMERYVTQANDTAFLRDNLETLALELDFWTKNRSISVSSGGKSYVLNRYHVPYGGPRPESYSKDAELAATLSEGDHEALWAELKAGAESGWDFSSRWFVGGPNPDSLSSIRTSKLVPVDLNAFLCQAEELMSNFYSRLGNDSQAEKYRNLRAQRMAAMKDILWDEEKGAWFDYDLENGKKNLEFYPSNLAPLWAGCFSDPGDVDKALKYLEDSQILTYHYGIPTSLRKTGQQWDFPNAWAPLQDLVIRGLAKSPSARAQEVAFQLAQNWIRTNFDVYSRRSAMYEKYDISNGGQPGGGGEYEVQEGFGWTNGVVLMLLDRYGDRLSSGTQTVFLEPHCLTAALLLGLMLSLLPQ
Experiment: Trehalase assay (colorimetric determination of D-glucose liberated from trehalose)
Format: biochemical
Method: The trehalase assay is based on the colorimetric determination of D-glucose, which is liberated from trehalose by the action of trehalase.
Before the assay was started, trehalase (Sigma No. T 8778) was diluted with 20 mM phosphate buffer pH 6.5 in a ratio of 1 1000. Trehalose was dissolved in a concentration of 0.lM in 0.lM 2-(n-morpholino)ethanesulfonic acid.
At the beginning of the assay, 100 μl each of H2 O, trehalose and trehalase were combined and the mixture was incubated at 37° C. for 30 minutes. The reaction was stopped by heating the batch to 100° C. The control batch was stopped immediately (0 minutes) by boiling. Where appropriate, salbostatin was added to the reaction batches in various concentrations in place of water.
The glucose which was liberated from the trehalose was determined colorimetrically. To this end, the glucose was reacted by glucose oxidase and the H2 O2 which formed was used for oxidizing o-dianisidine.The oxidized odianisidine was determined using a photometer. All the abovementioned reagents for glucose determination came from the glucose kit manufactured by Sigma (Sigma Chemie GmbH, Deisenhofen, Germany; No. 510-DA), and the assay was carried out in accordance with the enclosed protocol.

Ki (competitive with regard to trehalose, read-out: inhibitor constant Ki): 0.18 µM
IC50 (substrate trehalose, 37° C., 30 minutes, read-out: salbostatin concentration showing an enzyme inhibition of 50%): 0.01 to 0.1 µM
type of inhibition (enzyme kinetics) (with regard to trehalose): competitive trehalase inhibitor
SMILES: OCC1=C[C@H](N[C@H]2CO[C@H](CO)[C@@H](O)[C@@H]2O)[C@H](O)[C@@H](O)[C@@H]1O [salbostatin]
